# Experimental data published in US8192962B2, “Processes for detecting toxic substances” (Daikin Industries, Ltd., priority 2001, dated 2012).
# Test system: Detoxification protein genes
# Experiment: DNA chip mRNA expression in yeast, detoxification protein genes (Table 8)
# Type: cell-based, Saccharomyces cerevisiae S288C
# Procedure, shortened: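 Chemical exposure: 2 h, log-phase S. cerevisiae S288C, YPD, 25° C., dose set to inhibit growth without death. Profiling: mRNA labeled by reverse transcription with Cy3- or Cy5-dUTP, hybridized to whole-genome array. Output: fluorescence ratio against untreated culture.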
structure (smiles),measurement,setting,value
"Oc1cc(Cl)c(Cl)cc1Cl [(6), 2,4,5-trichlorophenol]",The level of expressed mRNA in the presence of chemical substance/The level of expressed mRNA in the absence of chemical substance,yeast gene YBL064C,5.2
same,The level of expressed mRNA in the presence of chemical substance/The level of expressed mRNA in the absence of chemical substance,yeast gene YBR008C,1.0
same,The level of expressed mRNA in the presence of chemical substance/The level of expressed mRNA in the absence of chemical substance,yeast gene YBR145W,11.5
same,The level of expressed mRNA in the presence of chemical substance/The level of expressed mRNA in the absence of chemical substance,yeast gene YBR244W,1.0
same,The level of expressed mRNA in the presence of chemical substance/The level of expressed mRNA in the absence of chemical substance,yeast gene YBR293W,0.9
same,The level of expressed mRNA in the presence of chemical substance/The level of expressed mRNA in the absence of chemical substance,yeast gene YCL035C,5.1
same,The level of expressed mRNA in the presence of chemical substance/The level of expressed mRNA in the absence of chemical substance,yeast gene YCR083W,2.4
same,The level of expressed mRNA in the presence of chemical substance/The level of expressed mRNA in the absence of chemical substance,yeast gene YDL100C,2.1
same,The level of expressed mRNA in the presence of chemical substance/The level of expressed mRNA in the absence of chemical substance,yeast gene YDL168W,1.4
same,The level of expressed mRNA in the presence of chemical substance/The level of expressed mRNA in the absence of chemical substance,yeast gene YDR256C,0.5
same,The level of expressed mRNA in the presence of chemical substance/The level of expressed mRNA in the absence of chemical substance,yeast gene YDR453C,1.7
same,The level of expressed mRNA in the presence of chemical substance/The level of expressed mRNA in the absence of chemical substance,yeast gene YDR513W,2.1
same,The level of expressed mRNA in the presence of chemical substance/The level of expressed mRNA in the absence of chemical substance,yeast gene YDR538W,1.0
same,The level of expressed mRNA in the presence of chemical substance/The level of expressed mRNA in the absence of chemical substance,yeast gene YEL027W,1.1
same,The level of expressed mRNA in the presence of chemical substance/The level of expressed mRNA in the absence of chemical substance,yeast gene YEL065W,2.3
same,The level of expressed mRNA in the presence of chemical substance/The level of expressed mRNA in the absence of chemical substance,yeast gene YER185W,1.2
same,The level of expressed mRNA in the presence of chemical substance/The level of expressed mRNA in the absence of chemical substance,yeast gene YFL050C,0.9
same,The level of expressed mRNA in the presence of chemical substance/The level of expressed mRNA in the absence of chemical substance,yeast gene YGL013C,2.3
same,The level of expressed mRNA in the presence of chemical substance/The level of expressed mRNA in the absence of chemical substance,yeast gene YGL254W,0.7
same,The level of expressed mRNA in the presence of chemical substance/The level of expressed mRNA in the absence of chemical substance,yeast gene YGR088W,1.3
same,The level of expressed mRNA in the presence of chemical substance/The level of expressed mRNA in the absence of chemical substance,yeast gene YGR138C,0.8
same,The level of expressed mRNA in the presence of chemical substance/The level of expressed mRNA in the absence of chemical substance,yeast gene YGR197C,0.5
same,The level of expressed mRNA in the presence of chemical substance/The level of expressed mRNA in the absence of chemical substance,yeast gene YGR209C,1.9
same,The level of expressed mRNA in the presence of chemical substance/The level of expressed mRNA in the absence of chemical substance,yeast gene YGR224W,0.8
same,The level of expressed mRNA in the presence of chemical substance/The level of expressed mRNA in the absence of chemical substance,yeast gene YHL040C,7.3
same,The level of expressed mRNA in the presence of chemical substance/The level of expressed mRNA in the absence of chemical substance,yeast gene YHL047C,8.4
same,The level of expressed mRNA in the presence of chemical substance/The level of expressed mRNA in the absence of chemical substance,yeast gene YHR008C,1.0
same,The level of expressed mRNA in the presence of chemical substance/The level of expressed mRNA in the absence of chemical substance,yeast gene YHR048W,0.8
same,The level of expressed mRNA in the presence of chemical substance/The level of expressed mRNA in the absence of chemical substance,yeast gene YHR053C,1.3
same,The level of expressed mRNA in the presence of chemical substance/The level of expressed mRNA in the absence of chemical substance,yeast gene YHR055C,1.6
same,The level of expressed mRNA in the presence of chemical substance/The level of expressed mRNA in the absence of chemical substance,yeast gene YIR002C,2.2
same,The level of expressed mRNA in the presence of chemical substance/The level of expressed mRNA in the absence of chemical substance,yeast gene YIR038C,2.5
same,The level of expressed mRNA in the presence of chemical substance/The level of expressed mRNA in the absence of chemical substance,yeast gene YJL101C,1.0
same,The level of expressed mRNA in the presence of chemical substance/The level of expressed mRNA in the absence of chemical substance,yeast gene YJR104C,1.4
same,The level of expressed mRNA in the presence of chemical substance/The level of expressed mRNA in the absence of chemical substance,yeast gene YKL026C,1.8
same,The level of expressed mRNA in the presence of chemical substance/The level of expressed mRNA in the absence of chemical substance,yeast gene YKL064W,1.5
same,The level of expressed mRNA in the presence of chemical substance/The level of expressed mRNA in the absence of chemical substance,yeast gene YKR066C,0.9
same,The level of expressed mRNA in the presence of chemical substance/The level of expressed mRNA in the absence of chemical substance,yeast gene YKR105C,1.2
same,The level of expressed mRNA in the presence of chemical substance/The level of expressed mRNA in the absence of chemical substance,yeast gene YKR106W,1.6
same,The level of expressed mRNA in the presence of chemical substance/The level of expressed mRNA in the absence of chemical substance,yeast gene YLL028W,1.7
same,The level of expressed mRNA in the presence of chemical substance/The level of expressed mRNA in the absence of chemical substance,yeast gene YLL057C,1.0
same,The level of expressed mRNA in the presence of chemical substance/The level of expressed mRNA in the absence of chemical substance,yeast gene YLL060C,1.4
same,The level of expressed mRNA in the presence of chemical substance/The level of expressed mRNA in the absence of chemical substance,yeast gene YLR043C,1.4
same,The level of expressed mRNA in the presence of chemical substance/The level of expressed mRNA in the absence of chemical substance,yeast gene YLR046C,3.8
same,The level of expressed mRNA in the presence of chemical substance/The level of expressed mRNA in the absence of chemical substance,yeast gene YML028W,1.2
same,The level of expressed mRNA in the presence of chemical substance/The level of expressed mRNA in the absence of chemical substance,yeast gene YML116W,0.9
same,The level of expressed mRNA in the presence of chemical substance/The level of expressed mRNA in the absence of chemical substance,yeast gene YMR015C,1.3
same,The level of expressed mRNA in the presence of chemical substance/The level of expressed mRNA in the absence of chemical substance,yeast gene YMR038C,1.0
same,The level of expressed mRNA in the presence of chemical substance/The level of expressed mRNA in the absence of chemical substance,yeast gene YNL239W,1.8
same,The level of expressed mRNA in the presence of chemical substance/The level of expressed mRNA in the absence of chemical substance,yeast gene YNL241C,0.9
same,The level of expressed mRNA in the presence of chemical substance/The level of expressed mRNA in the absence of chemical substance,yeast gene YNL259C,3.9
same,The level of expressed mRNA in the presence of chemical substance/The level of expressed mRNA in the absence of chemical substance,yeast gene YOL158C,2.0
same,The level of expressed mRNA in the presence of chemical substance/The level of expressed mRNA in the absence of chemical substance,yeast gene YOR031W,0.9
same,The level of expressed mRNA in the presence of chemical substance/The level of expressed mRNA in the absence of chemical substance,yeast gene YOR153W,7.4
same,The level of expressed mRNA in the presence of chemical substance/The level of expressed mRNA in the absence of chemical substance,yeast gene YOR247W,0.2
same,The level of expressed mRNA in the presence of chemical substance/The level of expressed mRNA in the absence of chemical substance,yeast gene YOR251C,0.9
same,The level of expressed mRNA in the presence of chemical substance/The level of expressed mRNA in the absence of chemical substance,yeast gene YOR273C,0.4
same,The level of expressed mRNA in the presence of chemical substance/The level of expressed mRNA in the absence of chemical substance,yeast gene YPL163C,0.6
same,The level of expressed mRNA in the presence of chemical substance/The level of expressed mRNA in the absence of chemical substance,yeast gene YPR200C,0.8
